US20090081197A1 (Palatin Technologies, Inc., priority 2007, published 2009)

Legend:
MC4-R [1] = target: T1, MC4-R (Homo sapiens, UniProt P32245); test: cAMP agonist stimulation, low receptor density system (0.1 ng/mL doxycycline); conditions: 0.1 ng/mL doxycycline, low receptor density hMC4-R system; NDP-α-MSH maximal cAMP = 1.0
MC4-R [2] = target: T1, MC4-R; test: cAMP functional activity assay in HEK-293 cells, normal system; format: cell-based; set-up: expressed in transfected cells; host or cells: HEK-293; conditions: for intrinsic activity at MC4-R in a normal system / EC50: normal receptor density system; for intrinsic activity at MC4-R in a normal system: NDP-α-MSH = 1.0; for functional status at MC4-R in cAMP assay: normal system, 1 μM concentration where stated
Method: General method for EC50 determination in functional activity assay. […] Data analysis and EC50 values were determined using nonlinear regression analysis with Prism Graph-Pad software.
Functional status. The agonist/antagonist status with respect to MC1-R, MC-3R, MC4-R and MC5-R of certain compounds of the invention was determined. Antagonistic activity was determined by measuring the inhibition of α-MSH-induced or NDP-α-MSH-induced cAMP levels following exposure to graded doses of compounds as in the preceding descriptions.
Assay for agonist. Evaluation of the molecules to elicit a functional response in HEK-293 cells expressing MC4-R was accomplished by measuring the accumulation of intracellular cAMP following treatment. Confluent HEK-293 cells expressing MC4-R receptors were detached by enzyme free cell suspension buffer. […] The cells were plated in a 96 well plates at a density of 0.5×10^5 cells per well and pre-incubated for 30 minutes. Test compounds (dissolved in dimethylsulfoxide (DMSO) at a concentration range of 0.05-5000 nM) were added in a total assay volume of 200 μL and cells were incubated for 1 hour at 37° C. The concentration of DMSO was always held at 1% in the assay mixture. NDP-α-MSH was used as the reference agonist. […] Data analysis and EC50 values were determined by using nonlinear regression analysis with Prism Graph-Pad software. […] Compounds with a response ratio of less than 0.1 (10%) were evaluated for antagonistic activity.

MC3-R = MC3-R (Homo sapiens, UniProt P41968); test: Competitive inhibition assay using [I^125]-NDP-α-MSH, hMC3-R membranes; format: binding; set-up: expressed in transfected cells; conditions: for inhibition at 1 µM: 1 μM test compound, read-out: Inhibition at 1 μM (NDP-α-MSH) In Normal System, MC3-R; for Ki: read-out: Ki (nM) (NDP-α-MSH) In Normal System, MC3-R
Method: (§1) The ligand concentration used was 0.4 nM for MC3-R and MC5-R, 0.2 nM for MC4-R and 0.1 nM for B16-F10 (MC1-R) membranes. In certain experiments, hMC1-R was also employed.
(§2) The assay mixture was incubated for 90 minutes at room temperature, then filtered and the membranes washed three times with ice cold buffer. The filter was dried and counted in a gamma counter for remaining radioactivity bound to the membranes. […] Each assay was conducted in triplicate and the actual mean values are described, with results less than 0% reported as 0%.

MC4-R [3] = target: T1, MC4-R; test: cAMP agonist stimulation, high receptor density system (10 ng/mL doxycycline); conditions: for Efficacy/Intrinsic Activity: NDP-α-MSH maximal cAMP = 1.0
[4] = ICV food intake and body weight change; format: in vivo; conditions: rat, 1 nmol, 24 hours
Method: ICV food intake and body weight change. Change in food intake and body weight was evaluated for selected compounds. Rats with indwelling intracerebroventricular cannulas (ICV rats) were obtained from Hilltop Lab Animals, Inc. (Scottdale, Pa.). Animals were individually housed in conventional plexiglass hanging cages and maintained on a controlled 12 hour on/off light cycle. Water and powdered (LabDiet, 5P00 Prolab RMH 3000) or pelleted (Harlan Teklad 2018 18% Protein Rodent Diet) food was provided ad libitum. For 1 week before treatment, 24-hour food intake and body weight change was recorded to assess a baseline for the group during vehicle treatment. The rats were dosed ICV with vehicle or selected compounds (1-3 nmol). The changes in body weight and food intake for the 24 hour period after dosing were determined. The changes in body weight and food intake for the 48 hour and 72 hour periods after dosing were also measured to determine reversal of changes in body weight and food intake effects back to baseline levels.

MC4-R [5] = target: T1, MC4-R; test: Competitive inhibition assay using [I^125]-NDP-α-MSH, hMC4-R membranes; format: binding; set-up: host or cells: TREx-293 (HEK-293 stably expressing Tet repressor); conditions: for inhibition at 1 µM: 1 μM test compound, read-out: Inhibition at 1 μM (NDP-α-MSH) In Normal System, MC4-R; for Ki: read-out: Ki (nM) (NDP-α-MSH) In Normal System, MC4-R
Method: as §1, §2

MC5-R = MC5-R (Homo sapiens, UniProt P33032); test: Competitive inhibition assay using [I^125]-NDP-α-MSH, hMC5-R membranes; format: binding; set-up: expressed in transfected cells; conditions: for inhibition at 1 µM: 1 μM test compound, read-out: Inhibition at 1 μM (NDP-α-MSH) In Normal System, MC5-R; for Ki: read-out: Ki (nM) (NDP-α-MSH) In Normal System, MC5-R
Method: as §1, §2

MC1-R = target: T2, MC1-R (Mus musculus, UniProt Q01727); test: Competitive inhibition assay using [I^125]-NDP-α-MSH, B-16 mouse melanoma cell membranes; format: binding; conditions: for inhibition at 1 µM: 1 μM test compound, read-out: Inhibition at 1 μM (NDP-α-MSH) In Normal System, MC1-R; for Ki: read-out: Ki (nM) (NDP-α-MSH) In Normal System, MC1-R
T2 construct: B-16 mouse melanoma cells (containing MC1-R); endogenous in cells
Method: as §1, §2

[6] = Penile erection induction in male rats; format: in vivo; conditions: rat, IV; for penile erection response: 1 μg/kg
Method: Penile erection induction. The ability of compounds to induce penile erection (PE) in male rats was evaluated with selected compounds. Male Sprague-Dawley rats weighing 200-250 g were kept on a 12 hour on/off light cycle with food and water ad libitum. All behavioral studies were performed between 10 A.M. and 5 P.M. Groups of 4-8 rats were treated with compounds at a variety of doses via intravenous (IV) or intracerebroventricular (ICV) routes. Immediately after treatment, rats were placed into individual polystyrene cages (27 cm long, 16 cm wide, and 25 cm high) for behavioral observation. […] Controls utilized carrier without the test compound. Mean PEs in control groups were 0.17 to 0.5 PEs/rat by IV administration in various experiments and between 1-2 PEs/rat by ICV administration in various experiments, and thus only PEs with statistically relevant increases over the mean PEs in control groups are reported as inducing PEs. A PE response in IV animals greater than the mean PEs in control groups but less than 1.0 PEs/rat, particularly with less than all animals responding, was treated as equivocal, and not necessarily distinguishable from vehicle control. In selected instances, compounds with equivocal results in the IV model were tested for penile response in an ICV model, and compounds without a statistically relevant increase over the mean PEs in ICV control groups were determined to not induce PEs.

[7] = IP (and IN) food intake, mice; format: in vivo; conditions: mouse, IP, 10 mg/kg, 4 hours; for inhibition in vivo at 10 mg/kg: read-out: maximal decrease in food intake
Method: IV and IP food intake and body weight change. Change in food intake and body weight was evaluated for selected compounds. Male Sprague-Dawley rats or male C57BL/6 mice were utilized. Animals were individually housed in conventional plexiglass hanging cages and maintained on a controlled 12 hour on/off light cycle. Water and powdered (LabDiet, 5P00 Prolab RMH 3000) or pelleted (Harlan Teklad 2018 18% Protein Rodent Diet) food was provided ad libitum. For 1 week before treatment, 24-hour food intake and body weight change was recorded to assess a baseline for the group during vehicle treatment. The rats were dosed IV with vehicle or selected compounds (0.5-3 mg/kg, and in some cases up to 10 mg/Kg) or dosed intraperitoneally (IP) with vehicle or selected compounds (0.5-10 mg/kg, and in some cases up to 50 mg/kg). Mice were dosed IP. […] The changes in body weight and food intake for the 48 hour and 72 hour periods after dosing were also measured to determined reversal of changes in body weight and food intake effects back to baseline levels.

[8] = 10 ng/mL doxycycline, high receptor density hMC4-R system

T2 sequence (Q01727 whole entry): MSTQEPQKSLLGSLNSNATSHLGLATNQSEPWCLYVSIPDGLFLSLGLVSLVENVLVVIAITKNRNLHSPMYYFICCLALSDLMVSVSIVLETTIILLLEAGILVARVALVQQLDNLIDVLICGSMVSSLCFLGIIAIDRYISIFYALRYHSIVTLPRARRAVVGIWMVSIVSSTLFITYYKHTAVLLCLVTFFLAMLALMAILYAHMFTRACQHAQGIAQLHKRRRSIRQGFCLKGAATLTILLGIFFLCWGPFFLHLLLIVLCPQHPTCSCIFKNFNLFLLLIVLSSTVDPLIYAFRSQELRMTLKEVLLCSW
MC3-R, sequence (P41968 whole entry): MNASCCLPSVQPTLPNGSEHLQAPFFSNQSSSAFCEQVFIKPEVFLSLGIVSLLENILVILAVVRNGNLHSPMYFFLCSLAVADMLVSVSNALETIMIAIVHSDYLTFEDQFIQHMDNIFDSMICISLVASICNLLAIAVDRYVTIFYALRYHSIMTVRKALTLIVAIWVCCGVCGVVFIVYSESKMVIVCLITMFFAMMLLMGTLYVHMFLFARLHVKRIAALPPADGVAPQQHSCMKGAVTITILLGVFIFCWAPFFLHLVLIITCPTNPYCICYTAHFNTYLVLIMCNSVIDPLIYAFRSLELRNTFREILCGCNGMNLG
MC5-R, sequence (P33032 whole entry): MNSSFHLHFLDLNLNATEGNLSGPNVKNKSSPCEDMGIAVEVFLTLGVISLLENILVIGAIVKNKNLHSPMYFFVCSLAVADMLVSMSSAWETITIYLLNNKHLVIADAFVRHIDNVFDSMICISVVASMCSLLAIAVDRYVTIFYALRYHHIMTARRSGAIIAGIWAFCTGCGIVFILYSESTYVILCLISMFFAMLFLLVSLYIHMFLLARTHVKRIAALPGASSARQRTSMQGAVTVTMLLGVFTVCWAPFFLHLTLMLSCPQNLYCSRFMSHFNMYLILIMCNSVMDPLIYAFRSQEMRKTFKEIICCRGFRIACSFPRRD
T1 sequence (P32245 whole entry): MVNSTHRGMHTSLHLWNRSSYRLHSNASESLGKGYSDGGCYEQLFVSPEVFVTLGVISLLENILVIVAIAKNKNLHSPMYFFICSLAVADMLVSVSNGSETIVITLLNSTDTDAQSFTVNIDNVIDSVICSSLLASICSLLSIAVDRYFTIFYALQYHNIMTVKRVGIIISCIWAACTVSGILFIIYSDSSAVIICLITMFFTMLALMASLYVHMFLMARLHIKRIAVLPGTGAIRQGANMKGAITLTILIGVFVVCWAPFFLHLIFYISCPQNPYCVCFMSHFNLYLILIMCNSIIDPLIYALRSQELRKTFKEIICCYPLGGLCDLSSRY

Molecule	Efficacy/Intrinsic Activity (MC4-R [1])	intrinsic activity at MC4-R in a normal system (MC4-R [2])	functional status at MC4-R in cAMP assay (MC4-R [2])	inhibition at 1 µM (MC3-R) [%]	EC50 (MC4-R [3]) [nM]	Efficacy/Intrinsic Activity (MC4-R [3]; [8])	decrease in body weight [4] [%]	decrease in food intake [4] [%]	inhibition at 1 µM (MC4-R [5]) [%]	Ki (MC4-R [5]) [nM]	inhibition at 1 µM (MC5-R) [%]	Ki (MC5-R) [nM]	inhibition at 1 µM (MC1-R) [%]	Ki (MC1-R) [nM]	EC50 (MC4-R [2]) [nM]	Ki (MC3-R) [nM]	Penile Erection IV [6]	penile erection response [6]	inhibition in vivo at 10 mg/kg [7] [%]	further results
NCCCC[C@H]1C(=O)N(CCc2ccc3ccccc3c2)CCN1C(=O)[C@@H](Cc1ccc(Cl)cc1Cl)NC(=O)[C@@H]1CC[C@H](c2ccccc2)N1 [Example 18, (2S,5R)-5-phenyl-pyrrolidine-2-carboxylic acid [(R)-2-[(S)-2-(4-amino-butyl)-4-(2-naphthalen-2-yl-ethyl)-3-oxo-piperazin-1-yl]-1-(2,4-dichloro-benzyl)-2-oxo-ethyl]-amide]	None	0.2	partial agonist (intrinsic activity between 0.1 (10%) and 0.7 (70%) is classified as a partial agonist)	18	281	0.29	2	31	92	50	51	789	0	1370	–	–	–	–	–	–
(E)-N—[(R)-2-[(S)-2-(4-Amino-butyl)-4-(2-naphthalen-2-yl-ethyl)-3-oxo-piperazin-1-yl]-1-(2,4-dichloro-benzyl)-2-oxo-ethyl]-3-phenyl-acrylamide [Example 20]	None	0.2	partial agonist (intrinsic activity between 0.1 (10%) and 0.7 (70%) is classified as a partial agonist)	–	–	0.38	3	4	–	6	–	398	–	502	112	648	No	no penile erection response	–	EC50 (MC4-R [3]; [8]): 215 nM
CC(=O)N[C@H](Cc1ccc2ccccc2c1)C(=O)N1C[C@@H](C)N(C(=O)Cc2ccc3ccccc3c2)C[C@@H]1CCCNC(=N)N [Example 32, N-{(R)-2-[(2S,5R)-2-(3-guanidino-propyl)-5-methyl-4-(2-naphthalen-2-yl-acetyl)-piperazin-1-yl]-1-naphthalen-2-ylmethyl-2-oxo-ethyl}-acetamide]	–	–	–	38	–	–	–	–	97	7	44	826	51	406	7	634	–	–	34	–
CC(=O)N[C@H](Cc1ccc(C)cc1C)C(=O)N1C[C@@H](C)N(CCc2ccc3ccccc3c2)C[C@@H]1CCCNC(=N)N [Example 25, N-{1(R)-(2,4-Dimethyl-benzyl)-2-[2(S)-(3-guanidino-propyl)-5(R)-methyl-4-(2-naphthalen-2-yl-ethyl)-piperazin-1-yl]-2-oxo-ethyl}-acetamide]	None	–	–	75	–	None	–	–	100	–	89	–	28	568	–	–	–	–	–	maximal decrease in food intake [7]: 34%
C[C@@H]1CN(C(=O)[C@H](N)Cc2ccc3ccccc3c2)[C@@H](CCCNC(=N)N)CN1C(=O)Cc1ccc2ccccc2c1 [Example 33, N-{3-[(2S)-1-[(R)-2-Amino-3-(naphthlene-2-yl)-propionyl]-5(R)-methyl-4-(2-naphthalen-2-yl-acetyl)-piperazin-2-yl]-propyl}-guanidine]	–	–	–	40	50	–	–	–	89	19	50	548	43	227	42	596	–	–	25	–
NCCCC[C@H]1C(=O)N(CCc2ccc3ccccc3c2)CCN1C(=O)[C@@H](Cc1ccc(Cl)cc1Cl)NC(=O)c1ccc(Oc2ccccc2)cc1 [Example 21, N—[(R)-2-[(S)-2-(4-Amino-butyl)-4-(2-naphthalen-2-yl-ethyl)-3-oxo-piperazin-1-yl]-1-(2,4-dichloro-benzyl)-2-oxo-ethyl]-4-phenoxy-benzamide]	None	–	no intrinsic activity (intrinsic activity below 0.1 (10%) is classified as inactive or having no intrinsic activity)	51	–	None	1	2	99	–	51	–	35	–	–	–	No	no penile erection response	–	–
